Laboratory results reported in patent US6825230B2, “Spiro and dispiro 1,2,4-trixolane antimalarials” (Medicines for Malaria Venture MMV, priority 2002, dated 2004).
Values after ≈ are worked out from the molar mass of the structure shown.

Tests used:
[1] = system: chloroquine-resistant K1 strain of P. falciparum; test: In vitro antimalarial semiautomated microdilution assay ([3H]-hypoxanthine incorporation), K1 strain; type: cell-based, Plasmodium falciparum; conditions: Plasmodium falciparum; chloroquine-resistant K1 strain, 72 h incubation; read-out: IC50 (ng/ml) K1
Procedure, shortened: (§1)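 IC50 comes from Logit regression of [3H]-hypoxanthine incorporation data. Intraerythrocytic P. falciparum taken from asynchronous stock cultures is exposed to OZ compounds in a semiautomated microdilution format.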

[2] = system: chloroquine-sensitive NF54 strain of P. falciparum; test: In vitro antimalarial semiautomated microdilution assay ([3H]-hypoxanthine incorporation), NF54 strain; type: cell-based, Plasmodium falciparum; conditions: Plasmodium falciparum; chloroquine-sensitive NF54 strain, 72 h incubation; read-out: IC50 (ng/ml) NF54
Procedure, shortened: as §1

[3] = system: ANKA strain of P. berghei; test: Single dose STI in vivo screen in infected mice; design: species or system Plasmodium berghei; conditions: 10 mg/kg
[4] = system: Schistosoma mansoni adult worms (49-day-old); test: Effect on adult schistosomes (49-day-old) in infected mice; type: in vivo
Procedure: Mice were infected with 100 Schistosoma mansoni cercariae on day 49 post-treatment. Each group was treated per os with OZ compounds at single doses of 200, 400, and 600 mg/kg. Untreated mice served as the control. All groups were killed 4 weeks after treatment and the liver and intestine were removed and separated. The liver and intestine were compressed and alive male and female worms could be seen and counted.

[5] = system: ANKA strain of Plasmodium berghei; test: Single dose ED50/ED90/ED99 determination in infected mice; type: in vivo
Procedure, shortened: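 Moro SPF or NMRI mice (three per group) infected with P. berghei ANKA were dosed once on day 1 post-infection in SSV (0.5% CMC, 0.5% benzyl alcohol, 0.4% Tween 80, 0.9% NaCl). Parasitemia reduction was scored on day 3; ED values (mg/kg) came from nonlinear fitting.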

[6] = Pharmacokinetics in rats (IV and oral dosing); conditions: rat, in vivo
From the text: (§2) Artesunate is listed as a reference compound.

[7] = Pharmacokinetics in dogs (IV and oral dosing); conditions: in vivo, dog; for bioavailability: some values marked (V), not defined
From the text: as §2

P. berghei ANKA strain [8] = test: Divided 3x10 mg/kg vs single 1x30 mg/kg po dose in infected mice; type: in vivo, Plasmodium berghei
P. berghei ANKA strain [9] = test: Divided 3x3 mg/kg and 3x1 mg/kg po doses in infected mice; type: in vivo, Plasmodium berghei
Procedure, shortened: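 Male NMRI mice were infected i.v. with 2×10^7 P. berghei-parasitized erythrocytes on day 0, then dosed orally in SSV vehicle on days 1, 2 and 3 post-infection.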

P. berghei ANKA strain [10] = test: Prophylactic activity, single 100 mg/kg po at various times before infection; type: in vivo, Plasmodium berghei

With `NC[C@H]1CC[C@]2(CC1)OOC1(O2)C2CC3CC(C2)CC1C3` (stereo partly drawn) [OZ209] the IC50 [1] was 0.21 ng/mL (≈ 0.716 nM), the IC50 [2] was 0.32 ng/mL (≈ 1.09 nM) and the “Survival (days) 10 mg/kg po” value ([3]; single 10 mg/kg po in 3% ethanol and 7% Tween 80, untreated 6-7 days) was 9.5 days. For the same compound, the “Activity (%) 10 mg/kg po” value ([3]; single 10 mg/kg po in 3% ethanol and 7% Tween 80 on day 1 post-infection, percent reduction in parasitemia on day 3) was 99.94%, the “Survival (days) 10 mg/kg SSV po” value ([3]; single 10 mg/kg po in SSV, untreated 6-7 days) was 10.0 days and the “Activity (%) 10 mg/kg SSV po” value ([3]; single 10 mg/kg po in standard suspending vehicle (SSV) on day 1 post-infection, percent reduction in parasitemia on day 3) was 99.96%. For the same compound, the “Survival (days) 10 mg/kg sc” value ([3]; single 10 mg/kg sc in 3% ethanol and 7% Tween 80, untreated 6-7 days) was 12.5 days, the “Activity (%) 10 mg/kg sc” value ([3]; single 10 mg/kg sc in 3% ethanol and 7% Tween 80 on day 1 post-infection, percent reduction in parasitemia on day 3) was 99.97% and the “% reduction of adult worms growth at day 49 after per os application of 200 mg/kg, TWR (%)” value ([4]; single 200 mg/kg per os, 49-day-old adults, total worm reduction rate) was 39%. For the same compound, the “Adult worms day 49, per os 200 mg/kg, DEAD WORM (%)” value ([4]; single 200 mg/kg per os, percentage of dead worm in the liver) was 34%, the “% reduction of adult worms growth at day 49 after per os application of 400 mg/kg, TWR (%)” value ([4]; single 400 mg/kg per os, 49-day-old adults, total worm reduction rate) was 16% and the “Adult worms day 49, per os 400 mg/kg, DEAD WORM (%)” value ([4]; single 400 mg/kg per os, percentage of dead worm in the liver) was 28%. The “% reduction of adult worms growth at day 49 after per os application of 600 mg/kg, TWR (%)” value ([4]; single 600 mg/kg per os, 49-day-old adults, total worm reduction rate) was 41/ %, the “Adult worms day 49, per os 600 mg/kg, DEAD WORM (%)” value ([4]; single 600 mg/kg per os, percentage of dead worm in the liver) was 21++ % and the ED50 ([5]; Plasmodium berghei, single dose po in SSV on day 1 post-infection, parasitemia day 3, nonlinear fitting, read-out: ED50) was 0.55 mg/kg. For the same compound, the “ED90” value ([5]; po) was 1.4 mg/kg, the “ED99” value ([5]; single dose po in SSV on day 1 post-infection, parasitemia day 3, nonlinear fitting) was 3.0 mg/kg and the half-life ([6]; iv, 10 mg/kg) was 2.5 h. It also gave a bioavailability ([6]; po, 10 mg/kg) of 12.4%, a bioavailability ([6]; po, 25 mg/kg) of 22.4% and a half-life ([6]; po, 25 mg/kg) of 1.69 h. The half-life ([7]; IV 10 mg/kg) was 3.05 h, the half-life ([7]; oral 10 mg/kg) was 2.12 h and the bioavailability ([7]; oral 10 mg/kg, read-out: Dog Oral Bioavailability 10 mg/kg) was 24.5%. The bioavailability ([7]; oral 25 mg/kg, read-out: Dog Oral Bioavailability 25 mg/kg) was 15.9%, the “Survival (days) 3 × 10 mg/kg p.o. SSV” value (P. berghei ANKA strain [8]; 10 mg/kg po on days 1, 2, 3 post-infection) was over 30 days and the “Activity (%) 3 × 10 mg/kg p.o. SSV” value (P. berghei ANKA strain [8]; po, 10 mg/kg, 96 h) was 100%. The “Cures 3 × 10 mg/kg p.o. SSV” value (P. berghei ANKA strain [8]; po, 10 mg/kg, 720 h) was 3\3, the “Activity (%) 1 × 30 mg/kg p.o. SSV” value (P. berghei ANKA strain [8]; po, 30 mg/kg) was 100% and the “Cures 1 × 30 mg/kg p.o. SSV” value (P. berghei ANKA strain [8]; po, 30 mg/kg, 720 h) was 0/5. The “Survival (days) 1 × 30 mg/kg p.o. SSV” value (P. berghei ANKA strain [8]; single 30 mg/kg po on day 1 post-infection) was over 30 days, the “Activity at the 3×3 mg/kg dose” value (P. berghei ANKA strain [9]; 3 mg/kg po (SSV) on days 1, 2, 3 post-infection, parasitemia reduction on day 4) was 100% and the “Survival” value (P. berghei ANKA strain [9]; 3 × 1 mg/kg p.o. SSV on days 1, 2, 3 post-infection) was 9.4 days. For the same compound, the “Survival” value (P. berghei ANKA strain [9]; 3 × 3 mg/kg p.o. SSV on days 1, 2, 3 post-infection) was 16.4 days, the “Activity (%)” value (P. berghei ANKA strain [9]; 3 × 3 mg/kg p.o. SSV on days 1, 2, 3 post-infection, percent reduction of parasitemia vs control on day 4) was 100% and the “Activity (%)” value (P. berghei ANKA strain [9]; po, 1 mg/kg, 96 h) was 99.51%. For the same compound, the Cures (P. berghei ANKA strain [9]; po, 3 mg/kg, 720 h) was 0\5, the “Prophylactic Activity (%) 72 h” value (P. berghei ANKA strain [10]; po, 100 mg/kg) was 99.92% and the “Duration of prophylactic protection” value (P. berghei ANKA strain [10]; single 100 mg/kg po) was 3 days. The “Prophylactic Activity (%) 24 h” value (P. berghei ANKA strain [10]; single 100 mg/kg po 24 h before infection, parasitemia reduction on day 3 post-infection) was 100%, the “Prophylactic Activity (%) 48 h” value (P. berghei ANKA strain [10]; single 100 mg/kg po 48 h before infection, parasitemia reduction on day 3 post-infection) was 99.9% and the “Prophylactic Activity (%) 0 h” value (P. berghei ANKA strain [10]; single 100 mg/kg po at 0 h, parasitemia reduction on day 3 post-infection) was 100%.
